Reference: ChEMBL document CHEMBL2203240, “Synthesis of propiophenone derivatives as new class of antidiabetic agents reducing body weight in db/db mice” (Bioorg Med Chem, 2012)
Active and inactive are the calls of the source. The calls are words filed in the database; no cut-off is given here.

Assays:
[1] = Inhibition of alpha-glucosidase at 100 uM
[2] = target: T1, Glucose-6-phosphatase catalytic subunit 1 (Homo sapiens) (UniProt P35575); experiment: Inhibition of glucose-6-phosphatase at 100 uM
T1 sequence (whole entry): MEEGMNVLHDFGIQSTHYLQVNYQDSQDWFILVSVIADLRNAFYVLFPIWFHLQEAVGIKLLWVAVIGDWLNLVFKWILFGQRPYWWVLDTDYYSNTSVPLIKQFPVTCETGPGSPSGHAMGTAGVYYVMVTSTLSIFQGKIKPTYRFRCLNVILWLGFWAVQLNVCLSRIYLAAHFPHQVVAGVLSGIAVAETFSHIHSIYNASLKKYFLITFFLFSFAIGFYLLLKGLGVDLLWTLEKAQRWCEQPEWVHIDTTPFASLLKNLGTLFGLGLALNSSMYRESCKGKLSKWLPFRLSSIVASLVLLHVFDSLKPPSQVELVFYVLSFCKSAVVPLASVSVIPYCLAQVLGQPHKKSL

[3] = target: T2, Tyrosine-protein phosphatase non-receptor type 1 (Homo sapiens) (UniProt P18031); experiment: Inhibition of PTP1B at 100 uM
T2 sequence (whole entry): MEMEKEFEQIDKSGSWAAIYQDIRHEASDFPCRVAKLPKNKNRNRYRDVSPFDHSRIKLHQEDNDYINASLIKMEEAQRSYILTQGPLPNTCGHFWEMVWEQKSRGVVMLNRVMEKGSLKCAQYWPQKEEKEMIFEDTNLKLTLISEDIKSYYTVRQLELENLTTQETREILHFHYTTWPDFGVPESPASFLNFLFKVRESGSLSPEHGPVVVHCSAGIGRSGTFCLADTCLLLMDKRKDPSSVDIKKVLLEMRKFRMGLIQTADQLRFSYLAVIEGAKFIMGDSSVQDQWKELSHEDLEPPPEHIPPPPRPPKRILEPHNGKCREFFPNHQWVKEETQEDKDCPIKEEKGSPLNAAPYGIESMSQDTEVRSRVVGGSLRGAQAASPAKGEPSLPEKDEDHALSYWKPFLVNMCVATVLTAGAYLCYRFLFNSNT

[4] = Inhibition of glycogen phosphorylase at 100 uM
[5] = target: Dipeptidyl peptidase 4 (Homo sapiens) (UniProt P27487); experiment: Inhibition of DPP4 at 100 uM
Sequence of Dipeptidyl peptidase 4 (Homo sapiens) (P27487 whole entry, looked up): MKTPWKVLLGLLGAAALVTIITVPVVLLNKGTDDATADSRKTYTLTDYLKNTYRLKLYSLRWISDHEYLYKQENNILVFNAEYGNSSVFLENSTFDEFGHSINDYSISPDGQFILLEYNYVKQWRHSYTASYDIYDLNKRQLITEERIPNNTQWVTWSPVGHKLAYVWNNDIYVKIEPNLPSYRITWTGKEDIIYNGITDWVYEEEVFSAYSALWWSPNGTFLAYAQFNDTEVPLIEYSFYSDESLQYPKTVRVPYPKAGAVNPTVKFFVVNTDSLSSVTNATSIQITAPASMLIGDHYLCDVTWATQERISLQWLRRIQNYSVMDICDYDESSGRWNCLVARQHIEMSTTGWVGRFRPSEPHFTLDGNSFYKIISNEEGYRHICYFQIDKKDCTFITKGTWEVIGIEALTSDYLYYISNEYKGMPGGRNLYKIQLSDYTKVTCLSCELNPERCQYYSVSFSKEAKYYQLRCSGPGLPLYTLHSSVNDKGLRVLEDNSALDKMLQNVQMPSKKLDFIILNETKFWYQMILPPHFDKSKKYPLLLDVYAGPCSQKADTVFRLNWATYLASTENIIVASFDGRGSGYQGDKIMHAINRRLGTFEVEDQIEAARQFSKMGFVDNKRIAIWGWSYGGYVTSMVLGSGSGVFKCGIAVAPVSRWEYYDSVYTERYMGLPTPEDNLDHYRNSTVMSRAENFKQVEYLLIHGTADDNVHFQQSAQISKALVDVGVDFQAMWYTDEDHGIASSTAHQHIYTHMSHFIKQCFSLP

Rattus norvegicus [6] = experiment: Antihyperglycemic activity against sucrose loaded Charles Foster/Wistar albino rat assessed as reduction in blood glucose level at 100 mg/kg, po administered 30 mins before sucrose challenge by glucometer; assay type: functional; parameters: scale not given: the % may be the effect or the level left
Mus musculus [7] = experiment: Antihyperglycemic activity in C57BL/Ks db/db mouse assessed as reduction in blood glucose level at 30 mg/kg/day, po measured day 10 post dose by postprandial oral glucose tolerance test relative to control; assay type: functional; parameters: scale not given: the % may be the effect or the level left
Mus musculus [8] = experiment: Antihyperglycemic activity in C57BL/Ks db/db mouse assessed as reduction in blood glucose level at 30 mg/kg/day, po measured on day 6 post dose by postprandial oral glucose tolerance test relative to control; assay type: functional; parameters: scale not given: the % may be the effect or the level left
Mus musculus [9] = experiment: Antihyperglycemic activity in C57BL/Ks db/db mouse assessed as reduction in postprandial hyperglycemia at 30 mg/kg, po measured for 10 days post dose relative to control; assay type: functional; parameters: scale not given: the % may be the effect or the level left
Mus musculus [10] = experiment: Antidyslipidemic activity in C57BL/Ks db/db mouse assessed as reduction in plasma total cholesterol at 30 mg/kg/day, po relative to control; assay type: functional; parameters: scale not given: the % may be the effect or the level left
Rattus norvegicus [11] = experiment: Antihyperglycemic activity against sucrose challenged streptozotocin-induced diabetic Sprague-Dawley albino rat assessed as reduction of AUC of plasma glucose level at 100 mg/kg, po after 1 to 24 hrs administered 30 mins before sucrose challenge by glucometer; assay type: functional; parameters: scale not given: the % may be the effect or the level left
Mus musculus [12] = experiment: Reduction in food intake in C57BL/Ks db/db mouse at 30 mg/kg/day, po measured from day 3 to day 10; assay type: functional, organism-based
Rattus norvegicus [13] = experiment: Antihyperglycemic activity against sucrose challenged streptozotocin-induced diabetic Sprague-Dawley albino rat assessed as reduction of AUC of plasma glucose level at 100 mg/kg, po after 1 to 5 hrs administered 30 mins before sucrose challenge by glucometer; assay type: functional; parameters: scale not given: the % may be the effect or the level left
Mus musculus [14] = experiment: Antidyslipidemic activity in C57BL/Ks db/db mouse assessed as increase in HDL-cholesterol at 30 mg/kg/day, po relative to control; assay type: functional
Mus musculus [15] = experiment: Antiobesity activity in C57BL/Ks db/db mouse assessed as reduction in body weight change at 30 mg/kg/day, po measured for 10 days relative to control; assay type: functional, organism-based
Mus musculus [16] = experiment: Antihyperglycemic activity in C57BL/Ks db/db mouse assessed as reduction in insulin level at 30 mg/kg/day, po relative to control; assay type: functional; parameters: scale not given: the % may be the effect or the level left
Mus musculus [17] = experiment: Antidyslipidemic activity in C57BL/Ks db/db mouse assessed as reduction in plasma triglyceride level at 30 mg/kg/day, po relative to control; assay type: functional; parameters: scale not given: the % may be the effect or the level left
[18] = target: T3, Tyrosine-protein phosphatase non-receptor type 1 (Homo sapiens, UniProt P18031); experiment: Inhibition of PTP1B
T3 sequence (P18031 whole entry): T2 sequence (whole entry)

SMILES | inhibition [1] [%] | inhibition [2] [%] | inhibition [3] [%] | inhibition [4] [%] | inhibition [5] [%] | Activity (Rattus norvegicus [6]) [%] | Activity (Mus musculus [7]) [%] | Activity (Mus musculus [8]) [%] | Activity (Mus musculus [9]) [%] | Activity (Mus musculus [10]) [%] | Activity (Rattus norvegicus [11]) [%] | Activity (Mus musculus [12]) | Activity (Rattus norvegicus [13]) [%] | Activity (Mus musculus [14]) [%] | Activity (Mus musculus [15]) | Activity (Mus musculus [16]) [%] | Activity (Mus musculus [17]) [%] | IC50 [18] [µM]
CCOC(=O)C(CCCOc1cccc(OCCN2CCCCC2)c1C(=O)CC)C(=O)OCC | < 5 | < 5 | 19.6 | < 5 | < 5 | 16.4 |  |  |  |  |  |  |  |  |  |  |  | 
CN(CCOc1ccc(CC2SC(=O)NC2=O)cc1)c1ccccn1 (stereo unspecified) [ROSIGLITAZONE] |  |  |  |  |  |  | 46.5 | 33.9 | 51.3 |  |  |  |  |  |  |  |  | 
CCCCN(C)CCCOc1cccc(O)c1C(=O)CC | < 5 | 17.3 | 31.9 | < 5 | < 5 | 23.8 | 33.6 | 26.7 | 39.6 | 20.4 | 21.5 | Active | 27.5 | 4.03 | Active | 27.7 | 23.8 | 
CCC(=O)c1c(O)cccc1OCCN(C)C | 18.4 | 11.3 | 19.3 | < 5 | 24.2 | 19.45 |  |  |  |  | 7.4 |  | 12.1 |  |  |  |  | 
CCC(=O)c1c(O)cccc1OCCN(CC)CC | 19.3 | 11.6 | 28.8 | < 5 | < 5 | 38.4 |  |  |  |  | 20.4 |  | 23 |  |  |  |  | 
CCC(=O)c1c(O)cccc1OCCCN1CCCC1 | < 5 | 13.6 | 42.1 | 19.5 | 25.6 | 26.8 |  |  |  |  | 14.8 |  | 16.9 |  |  |  |  | 
CN(C)C(=N)NC(=N)N [METFORMIN] |  |  |  |  |  | 18.9 |  |  |  |  |  |  |  |  |  |  |  | 
CCOC(=O)C(CCCOc1cccc(OCCN2CCCC2)c1C(=O)CC)C(=O)OCC | < 5 | 13.9 | 58.6 | < 5 | 18.3 | 22.9 |  |  |  |  |  |  |  |  |  |  |  | 18.6
CCC(=O)c1c(O)cccc1OCCCN1CCCCC1 | < 5 | < 5 | 31.8 | < 5 | < 5 | 33.2 |  |  |  |  | 8.6 |  | 10.2 |  |  |  |  | 
